According to ChEMBL document CHEMBL4052638, “Multitarget trehalose-carnosine conjugates inhibit Aβ aggregation, tune copper(II) activity and decrease acrolein toxicity” (Eur J Med Chem, 2017):
Activity calls are given as the source filed them. The rule behind the calls is not given here.

Tests used:
[1] = target: Amyloid-beta precursor protein (Homo sapiens) (UniProt P05067); test: Inhibition of amyloid beta (1 to 42) (unknown origin) self induced aggregation assessed as fluorescence emission rate constant K at 40 to 5000 uM […] by ThT-based fluorometric method (reference value: 1.3 +/- 0.1)
Sequence of Amyloid-beta precursor protein (Homo sapiens) (P05067 whole entry): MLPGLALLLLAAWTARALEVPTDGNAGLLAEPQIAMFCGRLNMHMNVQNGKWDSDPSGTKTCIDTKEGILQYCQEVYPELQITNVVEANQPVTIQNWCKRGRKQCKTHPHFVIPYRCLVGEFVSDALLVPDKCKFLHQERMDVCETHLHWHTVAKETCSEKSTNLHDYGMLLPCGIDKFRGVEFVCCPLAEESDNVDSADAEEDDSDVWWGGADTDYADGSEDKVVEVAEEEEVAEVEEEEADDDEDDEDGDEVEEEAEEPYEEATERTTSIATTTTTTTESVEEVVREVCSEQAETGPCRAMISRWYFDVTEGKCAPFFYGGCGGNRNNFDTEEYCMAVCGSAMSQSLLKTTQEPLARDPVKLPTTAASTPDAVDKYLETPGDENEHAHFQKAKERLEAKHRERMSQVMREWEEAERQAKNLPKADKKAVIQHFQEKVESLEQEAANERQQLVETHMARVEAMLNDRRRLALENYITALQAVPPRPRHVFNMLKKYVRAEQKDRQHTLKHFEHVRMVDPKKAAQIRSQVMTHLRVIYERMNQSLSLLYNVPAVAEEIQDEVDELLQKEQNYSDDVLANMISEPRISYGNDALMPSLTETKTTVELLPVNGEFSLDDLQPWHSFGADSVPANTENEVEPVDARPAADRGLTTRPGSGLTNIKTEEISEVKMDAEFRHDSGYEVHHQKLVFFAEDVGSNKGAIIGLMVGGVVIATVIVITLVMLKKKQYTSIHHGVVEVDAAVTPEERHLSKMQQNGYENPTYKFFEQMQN

[2] = target: Amyloid-beta precursor protein (Homo sapiens) (UniProt P05067); test: Inhibition of amyloid beta (1 to 42) (unknown origin) self induced aggregation assessed as difference between final and initial fluorescence emission at 40 to 5000 uM […] by ThT-based fluorometric method (reference value: 52 +/- 7 a.u.)
[3] = Antiglycating activity in phosphate buffer assessed as ACR-compound adduct formation at 10 mM at pH 7.4 after 1 to 24 hrs by HPLC-MS/MS spectra analysis; format: physicochemical; settings: pH 7.4, 10000 µM
[4] = target: Amyloid-beta precursor protein (Homo sapiens) (UniProt P05067); test: (§1) Inhibition of amyloid beta (1 to 42) (unknown origin) self induced aggregation assessed as time at which amplitude of ThT emission is 50% of difference between final and initial fluorescence emission at 40 to 5000 uM after 3 hrs by ThT-based fluorometric method (reference value: 11 +/- 1 hrs)
[5] = Inhibition of cupric ion-mediated amyloid beta (1 to 40) aggregation at 20 mM at pH 6.6 after 3 hrs by light scattering assay
[6] = target: Amyloid-beta precursor protein (Homo sapiens) (UniProt P05067); test: Inhibition of amyloid beta (1 to 42) (unknown origin) self induced aggregation assessed as reduction in flat ribbons formation at 500 uM after 30 hrs by atomic force microscopic analysis
[7] = Stability of the compound assessed as human recombinant carnosinase mediated compound hydrolysis at 0.5 mM after 2.5 hrs by RP-HPLC analysis; format: ADME; settings: 500 µM
[8] = target: Amyloid-beta precursor protein (Homo sapiens) (UniProt P05067); test: Inhibition of amyloid beta (1 to 42) (unknown origin) self induced aggregation assessed as reduction in protofibrils formation at 500 uM after 30 hrs by atomic force microscopic analysis
[9] = target: Amyloid-beta precursor protein (Homo sapiens) (UniProt P05067); test: Inhibition of amyloid beta (1 to 42) (unknown origin) self induced aggregation […] by ThT-based fluorometric method
[10] = Antiglycating activity in phosphate buffer assessed as decrease in ACR levels at 10 mM at pH 7.4 by RP-HPLC analysis; format: physicochemical; settings: pH 7.4, 10000 µM, TDE = time-dependent effect
[11] = target: Amyloid-beta precursor protein (Homo sapiens) (UniProt P05067); test: Inhibition of amyloid beta (1 to 42) (unknown origin) self induced aggregation assessed as average assembled nanostructure height at 500 uM after 30 hrs by atomic force microscopic analysis
[12] = target: Amyloid-beta precursor protein (Homo sapiens) (UniProt P05067); test: Inhibition of amyloid beta (1 to 42) (unknown origin) self induced aggregation assessed as lag time at 40 to 5000 uM […] by ThT-based fluorometric method (reference value: 8.3 +/- 0.7 hrs)
[13] = Antiglycating activity in phosphate buffer assessed as ACR levels at 10 mM at pH 7.4 after 24 hr by RP-HPLC analysis relative to control; format: physicochemical; settings: pH 7.4, 24 h, 10000 µM
[14] = target: Amyloid-beta precursor protein (Homo sapiens) (UniProt P05067); test: Inhibition of amyloid beta (1 to 42) (unknown origin) self induced aggregation assessed as Tlag at 40 to 5000 uM in presence of trehalose by ThT-based fluorometric method (reference value: 8.3 +/- 0.7 hrs)
[15] = target: Amyloid-beta precursor protein (Homo sapiens) (UniProt P05067); test: Inhibition of amyloid beta (1 to 42) (unknown origin) self induced aggregation assessed as difference between final and initial fluorescence emission at 40 to 5000 uM […] in presence of trehalose by ThT-based fluorometric method (reference value: 52 +/- 7 a.u.)
[16] = target: Amyloid-beta precursor protein (Homo sapiens) (UniProt P05067); test: Inhibition of amyloid beta (1 to 42) (unknown origin) self induced aggregation assessed as fluorescence emission rate constant K at 40 to 5000 uM […] in presence of trehalose by ThT-based fluorometric method (reference value: 1.3 +/- 0.1)
[17] = target: Amyloid-beta precursor protein (Homo sapiens) (UniProt P05067); test: as §1, with “in presence of trehalose” for “after 3 hrs”
[18] = Antiglycating activity in phosphate buffer assessed as decrease in ACR levels at 10 mM at pH 7.4 up to 4 hrs by RP-HPLC analysis relative to control; format: physicochemical; parameters: scale not given: the % may be the effect or the level left; settings: pH 7.4, 4 h, 10000 µM
[19] = Drug metabolism assessed as human recombinant carnosinase mediated compound hydrolysis at 0.5 mM after 1.5 hrs by RP-HPLC analysis; format: ADME; settings: 500 µM
[20] = Antiglycating activity in phosphate buffer assessed as decrease in ACR levels at 10 mM at pH 7.4 after 1 hr by RP-HPLC analysis relative to control; format: physicochemical; parameters: scale not given: the % may be the effect or the level left; settings: pH 7.4, 1 h, 10000 µM

| Compound | K [1] | Activity [2] [a.u.] | Activity [3] | T1/2 [4] [h] | inhibition [5] | inhibition [6] | Stability [7] | inhibition [8] | Activity [9] | Activity [10] | Activity [11] [nm] | Tlag [12] [h] | Activity [13] [%] | Tlag [14] [h] | Activity [15] [a.u.] | K [16] | T1/2 [17] [h] | Activity [18] [%] | Drug metabolism [19] | Activity [20] [%] |
| --- | --- | --- | --- | --- | --- | --- | --- | --- | --- | --- | --- | --- | --- | --- | --- | --- | --- | --- | --- | --- |
| O=C(CCNC[C@H]1O[C@H](O[C@H]2O[C@H](CO)[C@@H](O)[C@H](O)[C@H]2O)[C@H](O)[C@@H](O)[C@@H]1O)N[C@@H](Cc1c[nH]cn1)C(=O)O | 0.7 | 6 | Active | 4.1 | Active | Active | Stable | Active | Dose-dependent effect | Tde | 2.1 | 2.7 | 1 | – | – | – | – | – | – | – |
| NCCC(=O)N[C@@H](Cc1c[nH]cn1)C(=O)O | 1.9 | 33 | – | 7.8 | Active | inactive | – | inactive | Dose-dependent effect | – | – | 3.9 | – | 4.3 | 31 | 2.7 | 5.8 | – | – | – |
| OC[C@H]1O[C@H](O[C@H]2O[C@H](CO)[C@@H](O)[C@H](O)[C@H]2O)[C@H](O)[C@@H](O)[C@@H]1O | 1.7 | 37 | – | 8.3 | – | – | – | – | Dose-dependent effect | – | – | 4.7 | – | – | – | – | – | – | – | – |
| NCCC(=O)N[C@@H](Cc1cnc[nH]1)C(=O)O [CARNOSINE] | – | – | Active | – | – | – | – | – | – | – | – | – | 0 | – | – | – | – | 0 | Metabolite_Detected | 40 |
